Holding throughout (experiment): NCI tumour cell line growth inhibition, 48 h
Assay [1] relates to CAKI-1.
Assay [2] has as its system CCRF-CEM.
Assay [3] relates to HCT-116.
Assay [4] has as its system HCT-15.
Assay [5] relates to HL-60.
In assay [6] the test system is HOP-92.
Assay [7] concerns IGROV-1.
The test system of assay [8] is MCF7.
Assay [9] concerns MOLT-4.
The subject of assay [10] is NCI-H460.
Assay [11] deals with OVCAR-4.
Assay [12] relates to OVCAR-5.
The test system of assay [13] is RPMI-8226.
Assay [14] deals with SK-MEL-28.
Assay [15] relates to SK-MEL-2.
The test system of assay [16] is U-251.
The subject of assay [17] is UACC-62.
Assay [18] deals with UO-31.
In assay [19] the test system is HOP-62.
In assay [20] the test system is NCI-H226.

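Dose response: 5 concentrations. Exposure: 48 h. Format: 96-well plates. Endpoint: linear interpolation; highest concentration if not reached. GI50 marks 50% less growth.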 Calls of active or inactive are those of the source. Rule as the data show it: active = GI50 up to about 1.1 µM and inactive = higher.

On to `CCOC(=O)C(NC(C)=O)(Nc1ccc(F)cc1)C(F)(F)F` (stereo not drawn), for which the GI50 in [1] was > 100 µM (inactive); in assay [2], > 100 µM (inactive); in assay [3], 13.4 µM (inactive); in [4], 0.49 µM; in assay [5] it was 4.79 µM (inactive); in assay [6], > 100 µM (inactive). Also, the GI50 in [7] was 90.8 µM (inactive); in [8], 28.2 µM (inactive); in assay [9], 90.6 µM (inactive); in assay [10], 7.21 µM (inactive); in [11], 88.1 µM (inactive); in [12], 47 µM (inactive). Besides, the GI50 in assay [13] was 72.1 µM (inactive); in assay [14], > 100 µM (inactive); in assay [15], > 100 µM (inactive); in assay [16], 16.5 µM (inactive); in assay [17], 18.2 µM (inactive); in assay [18] it was 34.8 µM (inactive).
For `COC(=O)C1=C(O)C(C(=O)OC)[C@@]2(O)[C@@H](C(=O)OC)CC[C@@H]1[C@@H]2C(=O)OC` (stereo partly drawn), the GI50 is 25.2 µM (inactive) in assay [2]; 30.4 µM (inactive) in [3]; 20.6 µM in [4]; 23.3 µM (inactive) in [5]; 23.8 µM (inactive) in assay [19]; 35.6 µM (inactive) in [8]. In addition, the GI50 in [9] was 29.4 µM (inactive); in assay [20], 20.1 µM (inactive); in [10] it was 16.1 µM (inactive); in assay [12], 28.2 µM (inactive); in [13] it was 27.2 µM (inactive); in [14] it was 27.9 µM (inactive). Moreover, the GI50 is 16 µM (inactive) in assay [15], 22.3 µM (inactive) in assay [16], 30 µM (inactive) in assay [17] and 29.2 µM (inactive) in [18].
In the case of `Cn1cnc(/C=C/C#N)c1`, the GI50 in assay [1] was > 100 µM (inactive); in assay [2] it was > 100 µM (inactive); in [4] it was over 100 µM; in assay [19], > 100 µM (inactive); in [6], > 100 µM (inactive); in assay [7], > 100 µM (inactive). Further, the GI50 in [8] was > 100 µM (inactive); in assay [9], > 100 µM (inactive); in assay [20], 76.7 µM (inactive); in assay [10] it was > 100 µM (inactive); in assay [11], > 100 µM (inactive); in assay [12], > 100 µM (inactive). Moreover, the GI50 in assay [14], in assay [15], in assay [16], in assay [17] and in assay [18] was > 100 µM (inactive) each time.
For `O=C1C(Cl)N(c2ccc(Cl)cc2Cl)C1c1c[nH]c2ccccc12` (stereo not drawn), the GI50 in [2] is > 100 µM (inactive); in [3], 91.2 µM (inactive); in assay [5] it was > 100 µM (inactive); in assay [19] it was > 100 µM (inactive); in assay [6] it was 44.5 µM (inactive); in assay [7], > 100 µM (inactive). For the same compound, the GI50 in assay [9], in assay [10], in assay [11], in assay [13], in assay [14] and in assay [15] was > 100 µM (inactive) each time. For the same compound, the GI50 in assay [16] was > 100 µM (inactive); in assay [17], > 100 µM (inactive); in assay [18], 4.75 µM (inactive).
Regarding `COc1nc(N)c(C(=O)CCl)c(=O)n1C`, the GI50 in [1] was 7.41 µM (inactive); in [2], 15.1 µM (inactive); in [3], 10.9 µM (inactive); in assay [5], 2.17 µM (inactive); in assay [6], 4.66 µM (inactive); in [7], 13.6 µM (inactive). Moreover, the GI50 was 13.9 µM (inactive) in [9]; 4.5 µM (inactive) in assay [20]; 19 µM (inactive) in assay [10]; 15.4 µM (inactive) in assay [11]; 20.2 µM (inactive) in assay [12]; 2.71 µM (inactive) in assay [13]. The GI50 in [14] was 12 µM (inactive); in [15] it was 12.5 µM (inactive); in assay [16], 15.5 µM (inactive); in [18] it was 22 µM (inactive).
On to `COc1cccc(NC(=O)N/C(=C/c2ccc(N(CCC#N)CCC#N)cc2)NC(=O)c2cc([N+](=O)[O-])ccc2Cl)c1`, for which the GI50 in [1] is > 100 µM (inactive); in [2], 77.8 µM (inactive); in [3], > 100 µM (inactive); in [4], 95.5 µM; in assay [19] it was > 100 µM (inactive); in assay [6] it was > 100 µM (inactive). For the same compound, the GI50 in [7] is > 100 µM (inactive); in [9] it was 35 µM (inactive); in assay [20], > 100 µM (inactive); in [11], > 100 µM (inactive); in [12], > 100 µM (inactive); in assay [13], 51.6 µM (inactive). The GI50 in assay [14] is 64 µM (inactive); in assay [15], > 100 µM (inactive); in assay [16], > 100 µM (inactive); in [17] it was 89.3 µM (inactive); in assay [18] it was > 100 µM (inactive).
`CCOC(=O)/C(=N/Nc1ccc(C)cc1)N1C(=S)N(C)N=C(C)C=C1S`: the GI50 was 77.1 µM (inactive) in assay [1]; > 100 µM (inactive) in [2]; > 100 µM (inactive) in [3]; over 100 µM in assay [4]; > 100 µM (inactive) in assay [5]; 49.5 µM (inactive) in [6]. The GI50 in assay [7], in [8], in assay [9], in assay [10], in assay [11] and in [12] was > 100 µM (inactive) each time. The GI50 in assay [13] was > 100 µM (inactive); in assay [14], > 100 µM (inactive); in assay [15] it was 58.1 µM (inactive); in assay [16], 24.1 µM (inactive); in assay [17] it was > 100 µM (inactive); in assay [18] it was > 100 µM (inactive).
Take `COc1cc2c(cc1OC)C1Cc3sccc3CN1CC2` (stereo not drawn): the GI50 was > 100 µM (inactive) in [1]; > 100 µM (inactive) in [2]; > 100 µM (inactive) in assay [3]; over 100 µM in [4]; > 100 µM (inactive) in assay [5]; > 100 µM (inactive) in assay [19]. The GI50 in assay [6] was 76.2 µM (inactive); in [7], > 100 µM (inactive); in assay [9], > 100 µM (inactive); in assay [20], > 100 µM (inactive); in [10], > 100 µM (inactive); in assay [11], > 100 µM (inactive). In addition, the GI50 in [12], in assay [13], in [15], in assay [16], in assay [17] and in assay [18] was > 100 µM (inactive) in each case.
On to `O=C1c2ccccc2OCC1/C=N/O` (stereo not drawn), for which the GI50 in [2] is > 100 µM (inactive); in assay [3], > 100 µM (inactive); in [4], 63.7 µM; in [5] it was > 100 µM (inactive); in assay [19] it was > 100 µM (inactive); in [6], > 55.1 µM (inactive). The GI50 in assay [7] was 82.2 µM (inactive); in assay [8], 29.6 µM (inactive); in assay [9], > 100 µM (inactive); in [20], > 100 µM (inactive); in [10] it was > 100 µM (inactive); in assay [11], > 62.5 µM (inactive). Besides, the GI50 was > 100 µM (inactive) in assay [12]; > 100 µM (inactive) in assay [13]; 51.6 µM (inactive) in assay [14]; 86.3 µM (inactive) in assay [15]; > 100 µM (inactive) in assay [16]; > 100 µM (inactive) in assay [17]. For the same compound, the GI50 in assay [18] was > 100 µM (inactive).
Consider `COc1cccc(C2c3cc4c(cc3OC(N3CCOCC3)C2C)OCO4)c1OC` (stereo not drawn), for which the GI50 in assay [1] is 2.02 µM (inactive); in assay [2], 4.52 µM (inactive); in [3], 2.98 µM (inactive); in assay [4], 4.36 µM; in assay [19], 11.4 µM (inactive); in [7] it was 3.46 µM (inactive). The GI50 is 7.91 µM (inactive) in assay [8]; 4.28 µM (inactive) in [9]; 7.71 µM (inactive) in assay [10]; 13.1 µM (inactive) in [12]; 6.59 µM (inactive) in [13]; 13.4 µM (inactive) in assay [14]. The figures for the GI50 in [15], in assay [17] and in assay [18] were 6.41 µM (inactive), 15.4 µM (inactive) and 7.03 µM (inactive), respectively.
For `COc1cc(-c2ccc(/N=N/c3ccc4c(S(=O)(=O)O)cc(S(=O)(=O)O)c(N)c4c3O)c(OC)c2)ccc1/N=N/c1ccc2c(S(=O)(=O)O)cc(S(=O)(=O)O)c(N)c2c1O`, the GI50 in assay [2] was > 100 µM (inactive); in [3], > 100 µM (inactive); in assay [4], over 100 µM; in assay [5] it was > 41.6 µM (inactive); in assay [19], > 100 µM (inactive); in assay [6], > 100 µM (inactive). The GI50 was > 100 µM (inactive) in assay [7]; > 100 µM (inactive) in [8]; > 100 µM (inactive) in assay [9]; > 87.5 µM (inactive) in assay [20]; > 100 µM (inactive) in assay [10]; > 100 µM (inactive) in assay [11]. For the same compound, the GI50 in assay [12] was > 91.2 µM (inactive); in [13] it was > 100 µM (inactive); in assay [14], > 100 µM (inactive); in assay [15] it was > 100 µM (inactive); in assay [16] it was > 100 µM (inactive); in [17] it was > 100 µM (inactive). In addition, the GI50 in assay [18] is > 100 µM (inactive).

These data come from ChEMBL document CHEMBL1201862, “PubChem BioAssay data set” (2004).
